Experimental data: US20250098651A1, “A NON-HUMAN MAMMAL COMPRISING IN ITS GENOME AT LEAST TWO HUMAN LEUKOCYTE ANTIGEN (HLA) CLASS I ALLELES, METHODS OF MAKING SUCH MAMMAL AND USES THEREOF” (Max-Delbrueck-Centrum für Molekulare Medizin in der …, priority 2022, published 2025)

T1: TRRAP S722F peptide on HLA-A*02:01 (human)
T1 peptide: KLVFGSVFL

T2: TRRAP (wild-type S722) peptide on HLA-A*02:01 (human)
T2 peptide: KLVFGSVSL


Columns and labels:
CD8^+ T cells [1] = experiment: Peptide immunization of ABab.I mice, intracellular IFN-γ staining of CD8+ T cells; assay type: in vivo, mouse; settings: for CD8^+ T cells produced IFN-γ: ABab.I mice, peripheral blood restimulated in vitro seven days post-injection; for mice responded: out of 6-7 mice/antigen
Description: A 200 μl injection suspension containing 100 μg of short peptides in PBS, 100 μl of incomplete Freund's adjuvant, and 50 μg CpG oligonucleotides were injected subcutaneously on both lateral sides of hind legs. 10- to 20-week-old young ABabDII or ABab.I mice (6-7 mice/group) were immunized with a 4-week interval between prime-boosts. […] As standard controls, ABabDII^1 and ABab.I mice were immunized with 100 μg of MAGE-A1278 […] […] 7-10 days after every boost injection, peripheral blood cells from immunized mice were ACK-lysed and cultured with 1 μM respective specific or unspecific peptide in the presence of protein transport inhibitor for 5-6 hours. Post-cell fixation, cells were intracellularly stained for IFN-γ, surface stained for CD3, CD8 markers, and analyzed by flow cytometry.
We analyzed ABab.I mice for antigen-specific CD8^+ T cell responses against described model antigens (FIG. 19A) using peptide immunization (FIG. 20). […] The MAGE-A1 epitope, […] The unspecific peptide used in in vitro restimulations was a NY-ESO epitope, […] (SEQ ID NO: 180).
Procedure: young mice were peptide-immunized (minimum twice) with intervals of at least 4-weeks between injections. Seven days post-booster injections, PBMCs from multi-HLA mice were stimulated in vitro with either the same peptides used for immunization (right), or unspecific peptides (left), or CD3/CD28 beads (middle, positive control). Intracellular flow cytometry staining measured the amount of IFN-γ cytokine released by the CD8^+ T cells after reacting to their respective epitopes. By flow cytometry, CD8^+ T cells were in vitro measured for CD3, CD8, and intracellularly IFN-γ expression. Dot plots in the figure depict CD8^+ IFN-γ^+ T cells (gated on CD3^+ lymphocytes). As an unspecific peptide, NY-ESO peptide ([…]) was used (as a negative control) only for in vitro stimulations.

A375 cells = experiment: Endogenous processing assay, co-culture with A375 cells, IFN-γ; assay type: cell-based, Homo sapiens; settings: concluded from TCR co-culture with TRRAP+ cell lines
Source text: FIGS. 4A-4F show the generation and characterization of TRRAP S722F TCRs in ABabDII mice. FIG. 4A depicts the TCR discovery pipeline with the immunization schedule as used in an illustrative example. […] Controls with wild-type S722 peptide or without (w/o) peptide. One representative flow cytometry plot out of three responder mice is given. […] IFN-γ levels measured after overnight co-culture of PBMCs (1×10^5) either with A375 cells (mutant-S722F^+, NY-ESO^+) or with SK-Mel-37 (wild-type-S722^+, NY-ESO^+). The TCR-ESO recognizes the NY-ESO157-165 epitope. Bar graph represents mean±SD (n=2). One representation out of three co-culture experiments is given.
Transduced T cells were co-cultured with peptide-titrated T2 (TAP^−/−) cells to ensure TCR interaction and its affinity to S722F. […] NY-ESO157-165, the HLA-A2 epitope is expressed on melanoma cells A375 and SK-Mel-37.

CD8^+ T cells [2] = experiment: Peptide immunization of ABabDII mice, CD8+ T cell IFN-γ response; assay type: in vivo, mouse
Description: A 200 μl injection suspension containing 100 μg of short peptides in PBS, 100 μl of incomplete Freund's adjuvant, and 50 μg CpG oligonucleotides were injected subcutaneously on both lateral sides of hind legs. 10- to 20-week-old young ABabDII or ABab.I mice (6-7 mice/group) were immunized with a 4-week interval between prime-boosts. Similar peptide mixtures were prepared and injected for further boosting regimens of all peptides. As standard controls, ABabDII^1 and ABab.I mice were immunized with 100 μg of MAGE-A1278 […] (SEQ ID NO: 26) peptide with a similar injection mixture. 7-10 days after every boost injection, peripheral blood cells from immunized mice were ACK-lysed and cultured with 1 μM respective specific or unspecific peptide in the presence of protein transport inhibitor for 5-6 hours. Post-cell fixation, cells were intracellularly stained for IFN-γ, surface stained for CD3, CD8 markers, and analyzed by flow cytometry.
For TCR candidate discovery, young ABabDII mice (n=7, 12-16 weeks) were immunized with mutant 9-mer peptides (FIG. 3B, […], SEQ ID NO: 30) at 4-week intervals. CD8^+ T cell responses were analyzed in blood one week after every boost using intracellular staining, followed by culturing the T cells and IFN-γ capture assay to sort for peptide-specific T cells (FIG. 4A). […]

[3] = biological target: T1, TRRAP S722F peptide on HLA-A*02:01; experiment: cytokine release
[4] = biological target: T2, TRRAP (wild-type S722) peptide on …; experiment: cytokine release

Row | Molecule | CD8^+ T cells produced IFN-γ (CD8^+ T cells [1]) | mice responded (CD8^+ T cells [1]) | further results
1 | SAFRCFIVY | about 0.2% | 3 | –
2 | KVLEYVIKV | ~1% | 3 | –
3 | KLVFGSVEL [mutant epitope-S722F, TRRAP S722F mutant nonamer, HLA-A2-restricted] | – | – | endogenous processing and presentation on HLA-A2 (A375 cells): not endogenously processed and presented on HLA-A2; T cells responding in the spleen after T cell culturing (CD8^+ T cells [2]; 10^−9 M peptide and IL-2 (20 IU/ml) for 10 days): about 17%; T cells responded in blood (CD8^+ T cells [2]; ABabDII mice, one-week post-4th injection (3rd boost)): about 0.8%
4 | TPRVTGGGAM | About 1.4% | – | –
5 | VRIGHLYIL | about 0.23% | 1 | –
6 | QYDPVAALF | about 0.3% | – | –
7 | KMRMRRMRR | about 1.8% | 1 | –
8 | VVGAVGVGK | About 6.9% | 6 | –
9 | APRGPHGGAASGL (NY- ESO peptide; NY- ESO epitope) [unspecific NY-ESO peptide used for in vitro restimulation] | No T cell responses were observed | – | –
10 | TRRAP S722F TCR, dominant TCR Valpha17-Vbeta27 pair (TCR) alpha TRAV17-1 TRAJ58 CDR3: CATDAEETSGSRLTF beta TRBV27-1 TRBJ2-1 CDR3: CASSLAGIYNEQFF | – | – | binding result [3]: recognises; binding result [4]: no recognition
